Literature values, collected in article PMC3309614 (Journal of the American Chemical Society, 2011).

System: kinesin-5 L214A
Settings: L214A mutation in allosteric binding site

Substance: S-Trityl-L-cyteine [STLC]
- effect of L214A mutation on inhibition: known to suppress STLC inhibition
